# Patent US12478617B2, “Lipidated peptide inhibitors of interleukin-23 receptor” (JANSSEN BIOTECH, INC., priority 2021, dated 2025)
# Starred links: 1 amine or outer side, 2 acyl side, 3 side chain; linkers in the order of their positions; H or OH if unused. Positions of bridges follow the written chain, without caps; N, C: chain ends. Non-standard residues stand in square brackets, D forms with d. Residues, ends and D or L forms follow the SMILES beside them. Groups on a side chain read outwards from the residue. *: point of attachment. Trp(7-Me) = Cc1cccc2c(C[C@H](N)C(=O)O)c[nH]c12; C20 diacid = O=C(O)CCCCCCCCCCCCCCCCCCC(=O)*; C18 diacid = O=C(O)CCCCCCCCCCCCCCCCC(=O)*; γGlu = O=C(O)[C@H](CCC(=O)[*:2])N[*:1]; 2Nal = N[C@@H](Cc1ccc2ccccc2c1)C(=O)O; AEF = NCCOc1ccc(C[C@H](N)C(=O)O)cc1; PEG6 = NCCOCCOCCOCCOCCOCCOCCC(=O)O; Trx = NC[C@H]1CC[C@H](C(=O)O)CC1; 3Pal = N[C@@H](Cc1cccnc1)C(=O)O; Pen = CC(C)(S)[C@H](N)C(=O)O; Thp = NC1(C(=O)O)CCOCC1; AEEA = NCCOCCOCC(=O)O; Sar = CNCC(=O)O
# Biological target: T1, IL-23R (Homo sapiens, UniProt Q5VWK5)
# T1 construct: HEK293 cells containing IL-23R, IL-12RP31 and a firefly luciferase reporter gene driven by a STAT-inducible promoter (Promega); host or cells: HEK293
# T1 sequence (Q5VWK5 24-629): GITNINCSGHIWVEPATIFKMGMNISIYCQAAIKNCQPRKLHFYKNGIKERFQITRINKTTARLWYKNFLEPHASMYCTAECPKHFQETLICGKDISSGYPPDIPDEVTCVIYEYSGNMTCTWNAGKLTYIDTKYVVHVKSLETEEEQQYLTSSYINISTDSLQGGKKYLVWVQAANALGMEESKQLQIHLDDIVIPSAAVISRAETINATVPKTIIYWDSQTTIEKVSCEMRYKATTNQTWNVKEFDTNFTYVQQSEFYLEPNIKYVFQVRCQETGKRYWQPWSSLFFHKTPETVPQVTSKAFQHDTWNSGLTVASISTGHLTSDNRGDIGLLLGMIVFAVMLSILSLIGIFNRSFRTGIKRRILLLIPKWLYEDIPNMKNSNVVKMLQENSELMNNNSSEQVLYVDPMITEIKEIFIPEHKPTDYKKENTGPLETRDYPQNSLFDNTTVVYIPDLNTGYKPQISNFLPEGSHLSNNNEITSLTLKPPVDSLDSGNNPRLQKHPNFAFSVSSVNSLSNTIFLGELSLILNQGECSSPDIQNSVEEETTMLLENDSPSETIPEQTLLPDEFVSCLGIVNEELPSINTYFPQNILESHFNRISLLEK
# Assay: IL23R Reporter Assay
# Format: cell-based
# Summary of the method: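 Luminescence from BioGlo, read after cells were moved to 20 °C, followed a 5 h incubation at 37 °C, 5% CO2 with DMSO-diluted test compounds.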
row,IC50,Compound
1,0.13 nM,"CC(=O)NCCCC[C@@H]1NC(=O)[C@H](Cc2c[nH]c3c(C)cccc23)NC(=O)[C@H]([C@@H](C)O)NC(=O)[C@H](CCCCNC(=O)COCCOCCNC(=O)COCCOCCNC(=O)[C@H]2CCCN2C(=O)CC[C@H](NC(=O)CCCCCCCCCCCCCCCCC(=O)O)C(=O)O)NC(=O)[C@@H](NC(=O)[C@@H](CCCNC(=N)N)NC(C)=O)C(C)(C)SSC(C)(C)[C@@H](C(=O)N[C@@H](Cc2ccc(OCCN)cc2)C(=O)N[C@@H](Cc2ccc3ccccc3c2)C(=O)NC2(C(=O)N[C@@H](CCCCNC(C)=O)C(=O)N[C@@H](CC(N)=O)C(=O)N[C@@H](Cc3cccnc3)C(=O)N(C)CC(N)=O)CCOCC2)NC1=O [Example 96, MeCO-r-Pen*-K(PEG2PEG2pgEC18OH)-T-7MeW-K(Ac)-Pen*-AEF-2Nal-THP-K(Ac)-N-3Pya-Sar-CONH2] (Ac-[dR][Pen]K([AEEA-AEEA-dP-γGlu-C18 diacid])T[Trp(7-Me)]K(Ac)[Pen][AEF][2Nal][Thp]K(Ac)N[3Pal][Sar]-NH2; disulfide 2-7)"
2,0.048 nM,"CC(=O)NCCCC[C@@H]1NC(=O)[C@H](Cc2c[nH]c3c(C)cccc23)NC(=O)[C@H]([C@@H](C)O)NC(=O)[C@H](CC(N)=O)NC(=O)[C@@H](NC(C)=O)C(C)(C)SSC(C)(C)[C@@H](C(=O)N[C@@H](Cc2ccc(OCCN)cc2)C(=O)N[C@@H](Cc2ccc3ccccc3c2)C(=O)NC2(C(=O)N[C@@H](CCCCNC(=O)COCCOCCNC(=O)CCOCCOCCOCCOCCOCCOCCNC(=O)CC[C@H](NC(=O)CCCCCCCCCCCCCCCCC(=O)O)C(=O)O)C(=O)N[C@@H](CC(N)=O)C(=O)N[C@@H](Cc3cccnc3)C(=O)N(C)CC(N)=O)CCOCC2)NC1=O [Example 39, MeCO-Pen*-N-T-7MeW-K(Ac)-Pen*-AEF-2Nal-THP-K(PEG2PEG6gEC18OH)-N-3Pya-Sar-CONH2] (Ac-[Pen]NT[Trp(7-Me)]K(Ac)[Pen][AEF][2Nal][Thp]K([AEEA-PEG6-γGlu-C18 diacid])N[3Pal][Sar]-NH2; disulfide 1-6)"
3,0.14 nM,"CC(=O)NCCCC[C@@H]1NC(=O)[C@H](Cc2c[nH]c3c(C)cccc23)NC(=O)[C@H]([C@@H](C)O)NC(=O)[C@H](CCCCNC(=O)COCCOCCNC(=O)COCCOCCNC(=O)[C@@H]2CCCN2C(=O)CC[C@H](NC(=O)CCCCCCCCCCCCCCCCC(=O)O)C(=O)O)NC(=O)[C@@H](NC(=O)[C@@H](CCCNC(=N)N)NC(C)=O)C(C)(C)SSC(C)(C)[C@@H](C(=O)N[C@@H](Cc2ccc(OCCN)cc2)C(=O)N[C@@H](Cc2ccc3ccccc3c2)C(=O)NC2(C(=O)N[C@@H](CCCCNC(C)=O)C(=O)N[C@@H](CC(N)=O)C(=O)N[C@@H](Cc3cccnc3)C(=O)N(C)CC(N)=O)CCOCC2)NC1=O [Example 95, MeCO-r-Pen*-K(PEG2PEG2PgEC18OH)-T-7MeW-K(Ac)-Pen*-AEF-2Nal-THP-K(Ac)-N-3Pya-Sar-CONH2] (Ac-[dR][Pen]K([AEEA-AEEA-Pro-γGlu-C18 diacid])T[Trp(7-Me)]K(Ac)[Pen][AEF][2Nal][Thp]K(Ac)N[3Pal][Sar]-NH2; disulfide 2-7)"
4,0.1 nM,"CC(=O)NCCCC[C@@H]1NC(=O)[C@H](Cc2c[nH]c3c(C)cccc23)NC(=O)[C@H]([C@@H](C)O)NC(=O)[C@H](CC(N)=O)NC(=O)[C@@H](NC(C)=O)C(C)(C)SSC(C)(C)[C@@H](C(=O)N[C@@H](Cc2ccc(OCCN)cc2)C(=O)N[C@@H](Cc2ccc3ccccc3c2)C(=O)NC2(C(=O)N[C@@H](CCCCNC(=O)COCCOCCNC(=O)COCCOCCNC(=O)CC[C@H](NC(=O)[C@H]3CC[C@H](CNC(=O)CCCCCCCCCCCCCCCCCCC(=O)O)CC3)C(=O)O)C(=O)N[C@@H](CC(N)=O)C(=O)N[C@@H](Cc3cccnc3)C(=O)N(C)CC(N)=O)CCOCC2)NC1=O [Example 128, MeCO-Pen*-N-T-7MeW-K(Ac)-Pen*-AEF-2Nal-THP-K(PEG2PEG2gETrxC20OH)-N-3Pya-Sar-CONH2] (Ac-[Pen]NT[Trp(7-Me)]K(Ac)[Pen][AEF][2Nal][Thp]K([AEEA-AEEA-γGlu-Trx-C20 diacid])N[3Pal][Sar]-NH2; disulfide 1-6)"
